The results in this text go back to patent publication US20190210973A1, “COMPOUNDS AND METHODS FOR TREATMENT OF CYSTIC FIBROSIS” (The Curators of the University of Missouri, priority 2018, published 2019).

For the assay, the target named is delF508-CFTR (Homo sapiens, UniProt P13569, DEL508-508). Nature of the assay: Western blot of delF508-CFTR membrane (surface) expression, Band C. Format: cell-based. On the set-up: delF508 stably-transfected C127 cells were cultured in DMEM with 10% FBS in 6-well plates; expressed in transfected cells; host or cells: C127 cells stably expressing delF508-CFTR. To be noted: for influence on the effect of Lumacaftor (VX-809) on membrane expression of delF508-CFTR (words): added to 3 μM VX-809. The text has this: The amount of CFTR proteins in the cell membrane can be determined with Western blot analysis. Like all membrane proteins in the cell, the CFTR protein is synthesized in the endoplasmic reticulum (ER), translocated to the Golgi apparatus for glycosylation before trafficked to the plasma membrane. Because of the addition of complex sugar molecules to CFTR, the molecular weight of “mature” or post-Golgi CFTR in the plasma membrane is higher than that of newly synthesized proteins in the ER. Thus, in Western blot, it is possible to discern two distinct bands: band C representing high molecular weight, mature CFTR, and band B low molecular weight, immature CFTR. While wild-type proteins are present mostly as band C, Class II disease-associated mutations such as delF508 causes a drastic diminution of band C, resulting in an effective decrease of N in the formula N×Po×i. The effects of the reagents (or CFTR correctors) that enhance band C can thus be quantitatively assessed with the Western blot analysis. By the same token, any interactions between different compounds, with positive or negative impact on band C, can be determined with this assay.
Western blot experiments were carried out in both transient expression system (CHO cells) and a stable cell line (C127 cells). CHO cells, grown in 35 mm dishes, were transfected with delF508-CFTR construct in pcDNA plasmids using X-tremeGENE (Roche). Six hours after transfection, tested compounds were added to the medium. In case of delF508-CFTR-expressing stable C127 cells, compounds were added to the medium at about 30% confluence. In both cases, cells were lysed 18 hours post drug treatment using 1×SDS loading buffer. Cell lysates were sheared by pushed through 18G needles. Whole cell lysate were separated in 4˜20% gradient gels (Bio-Rad Laboratories) and transferred onto nitrocellulose membranes. The membranes were blocked with 5% milk in TBST buffer (20 mM Tris, 137 mM NaCl, 0.1% Tween 20) at 4° C. overnight. The membranes were then probed with anti-CFTR antibody (AB596 from the Cystic Fibrosis Foundation) and anti-vimentin antibody as a control (Santa Cruz Biotechnology) at room temperature for two hours. The membranes were washed with TBST five times and then incubated with anti-mouse IgG, HRP-linked antibody (Cell Signaling Technology) at room temperature for one hour. The membranes were washed three times with TBST and developed with chemiluminescence reagent (Thermo Scientific). The luminescence was detected and quantified by a Molecular Image Chemi Doc (Bio-Rad Laboratories).
For Western blotting experiments, delF508 stably-transfected C127 cells were cultured in DMEM with 10% FBS in 6-well plates. Different tested compounds were added to the culture medium within 24 hours of passage to the desired concentration. Cells were lysed 18 hours post drug treatment using 1×SDS loading buffer. Cell lysates were sheared by pushed through 18G needles. Whole cell lysates were separated in 4-20% gradient gels (Bio-Rad Laboratories) and transferred onto nitrocellulose membranes. The membranes were blocked with 5% milk in TBST buffer (20 mM Tris, 137 mM NaCl, 0.1% Tween 20) at 4° C. overnight. The membranes were then probed with anti-CFTR antibody (AB660 from CFTR foundation) and anti-vimentin antibody as a loading control (Santa Cruz Biotechnology) at room temperature for two hours. The membranes were washed with TBST five times and then incubated with anti-mouse IgG, HRP linked antibody (Cell Signaling Technology) at room temperature for one hour. The membranes were washed three times with TBST and developed with chemiluminescence reagent (Thermo Scientific). The luminescence was detected by a Molecular Image Chemi Doc (Bio-Rad Laboratories). […]

Each structure is given as a SMILES string. “And” between values parts separate entries of the source, which are not always exact repeats. Identical values can stand only once. “Also recorded” adds a separate entry of the source.

delF508-CFTR, sequence (P13569 with tags, fused parts or gaps DEL508-508): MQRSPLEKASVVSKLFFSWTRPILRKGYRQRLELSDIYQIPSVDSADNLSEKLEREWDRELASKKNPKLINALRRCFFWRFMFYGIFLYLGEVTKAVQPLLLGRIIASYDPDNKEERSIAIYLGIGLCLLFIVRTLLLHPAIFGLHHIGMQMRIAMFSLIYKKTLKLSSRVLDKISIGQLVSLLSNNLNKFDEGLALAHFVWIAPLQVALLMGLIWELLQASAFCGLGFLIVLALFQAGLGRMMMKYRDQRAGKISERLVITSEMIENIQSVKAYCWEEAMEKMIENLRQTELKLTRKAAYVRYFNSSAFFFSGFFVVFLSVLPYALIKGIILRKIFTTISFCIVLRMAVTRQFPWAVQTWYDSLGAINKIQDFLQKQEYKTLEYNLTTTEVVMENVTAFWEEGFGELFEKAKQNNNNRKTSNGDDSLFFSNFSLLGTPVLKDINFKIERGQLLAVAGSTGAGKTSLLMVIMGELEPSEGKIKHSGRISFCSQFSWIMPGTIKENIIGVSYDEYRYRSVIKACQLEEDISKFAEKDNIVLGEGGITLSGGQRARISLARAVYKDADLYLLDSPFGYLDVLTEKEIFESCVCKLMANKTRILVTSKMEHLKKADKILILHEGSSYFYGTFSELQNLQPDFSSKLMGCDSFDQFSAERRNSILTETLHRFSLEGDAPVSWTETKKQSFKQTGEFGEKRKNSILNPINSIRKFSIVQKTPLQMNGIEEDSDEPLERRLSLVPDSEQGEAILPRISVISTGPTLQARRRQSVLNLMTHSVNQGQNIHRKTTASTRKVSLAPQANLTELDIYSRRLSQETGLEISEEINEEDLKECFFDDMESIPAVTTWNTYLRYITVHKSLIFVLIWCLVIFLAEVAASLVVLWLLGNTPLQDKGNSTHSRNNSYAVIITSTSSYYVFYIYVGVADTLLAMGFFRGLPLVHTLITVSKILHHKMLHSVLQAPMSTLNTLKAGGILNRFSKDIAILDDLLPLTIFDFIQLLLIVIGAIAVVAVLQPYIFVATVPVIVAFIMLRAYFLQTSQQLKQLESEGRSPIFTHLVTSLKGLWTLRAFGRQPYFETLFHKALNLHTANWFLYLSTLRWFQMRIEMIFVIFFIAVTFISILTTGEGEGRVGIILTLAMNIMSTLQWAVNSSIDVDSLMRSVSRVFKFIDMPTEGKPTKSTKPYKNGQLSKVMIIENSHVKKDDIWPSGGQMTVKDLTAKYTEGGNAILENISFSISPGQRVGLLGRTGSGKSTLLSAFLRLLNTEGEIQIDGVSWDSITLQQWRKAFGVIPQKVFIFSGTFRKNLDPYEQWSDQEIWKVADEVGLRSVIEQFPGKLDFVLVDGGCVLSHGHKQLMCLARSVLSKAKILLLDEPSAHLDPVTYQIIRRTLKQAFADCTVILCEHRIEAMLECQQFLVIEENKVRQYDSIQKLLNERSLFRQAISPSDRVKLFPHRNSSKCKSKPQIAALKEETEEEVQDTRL

In the case of `CC(C)(C)c1cc(C(C)(C)C)c(NC(=O)c2c[nH]c3ccccc3c2=O)cc1O` [VX-770, Ivacaftor, reference compound], the “influence on the effect of Lumacaftor (VX-809) on membrane expression of delF508-CFTR (words)” value is “dampens this effect; also recorded: dampens the effect of VX-809”. Under “3 μM VX-809 + 1 μM VX-770, C127 cells, lane 6, one value per experiment series”, the “surface expression of delF508-CFTR (Band C, corrected to vimentin, DMSO = 100)” value was 334 ± 81, N = 5 and 182 ± 57, N = 4 and 172 ± 50, N = 4. Also, the “influence on the effect of Lumacaftor (VX-809) on membrane expression of delF508-CFTR (words)” value (listed as Ivacaftor) is “diminishes the effect of Lumacaftor”.
